Experimental data from PubChem BioAssay (NCI).
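Briefly, cells in 96-well plates were exposed to five compound concentrations for 48 h, and endpoints were estimated by linear interpolation. At the TGI there is no net growth.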

Key:
Assay in all cases: DTP human tumour cell line panel, 48 h
[1] = system: KM12 colon
[2] = system: M19-MEL melanoma
[3] = system: MALME-3M melanoma
[4] = system: SR leukemia
[5] = system: LOX IMVI melanoma
[6] = system: M14 melanoma
[7] = system: OVCAR-5 ovarian
[8] = system: KM20L2 colon
[9] = system: ACHN renal
[10] = system: CAKI-1 renal
[11] = system: MOLT-4 leukemia
[12] = system: SNB-19 CNS
[13] = system: CCRF-CEM leukemia
[14] = system: A498 renal
[15] = system: LXFL 529 NSCLC
[16] = system: UACC-257 melanoma
[17] = system: HCT-116 colon
[18] = system: K-562 leukemia
[19] = system: SK-MEL-28 melanoma
[20] = system: SK-MEL-5 melanoma
[21] = system: NCI-H522 lung
[22] = system: UO-31 renal
[23] = system: RPMI-8226 leukemia
[24] = system: HCC-2998 colon
[25] = system: OVCAR-8 ovarian
[26] = system: NCI-H460 lung
[27] = system: SK-MEL-2 melanoma
[28] = system: TK-10 renal
[29] = system: SF-295 CNS
[30] = system: DMS 273 small cell lung
[31] = system: SF-268 CNS
[32] = system: UACC-62 melanoma
[33] = system: A549 NSCLC
[34] = system: SNB-78 CNS
[35] = system: NCI-H23 lung
[36] = system: HOP-18 NSCLC
[37] = system: SK-OV-3 ovarian
[38] = system: SN12C renal
[39] = system: HCT-15 colon
[40] = system: IGROV1 ovarian
[41] = system: COLO 205 colon
[42] = system: SW-620 colon
[43] = system: DMS 114 small cell lung
[44] = system: HOP-62 NSCLC
[45] = system: OVCAR-4 ovarian
[46] = system: 786-0 renal
[47] = system: HT29 colon
[48] = system: RXF 393 renal
[49] = system: HOP-92 NSCLC
[50] = system: EKVX NSCLC
[51] = system: SNB-75 CNS
[52] = system: HL-60(TB) leukemia
[53] = system: SF-539 CNS
[54] = system: U251 CNS
[55] = system: OVCAR-3 ovarian
[56] = system: XF 498 CNS
[57] = system: DLD-1 colon
[58] = system: NCI-H226 lung
[59] = system: RXF-631 renal

Cc1cc2c([nH]c3ccccc32)c2c1OC(C)(C)C1C3CC(C)(C)Oc4c(C)cc5c6ccccc6n(c5c43)C21 (centres undefined)
TGI [1]: > 100 µM
TGI [2]: > 100 µM
TGI [3]: > 100 µM
TGI [4]: > 100 µM
TGI [5]: > 100 µM
TGI [6]: > 100 µM
TGI [7]: > 100 µM
TGI [8]: > 100 µM
TGI [9]: > 100 µM
TGI [10]: > 100 µM
TGI [11]: > 100 µM
TGI [12]: > 100 µM
TGI [13]: > 100 µM
TGI [14]: > 100 µM
TGI [15]: > 100 µM
TGI [16]: > 100 µM
TGI [17]: > 100 µM
TGI [18]: > 100 µM
TGI [19]: > 100 µM
TGI [20]: > 100 µM
TGI [21]: > 100 µM
TGI [22]: > 100 µM
TGI [23]: > 100 µM
TGI [24]: > 100 µM
TGI [25]: > 100 µM
TGI [26]: > 100 µM
TGI [27]: > 100 µM
TGI [28]: > 100 µM
TGI [29]: > 100 µM
TGI [30]: > 100 µM
TGI [31]: > 100 µM
TGI [32]: > 100 µM
TGI [33]: > 100 µM
TGI [34]: > 100 µM
TGI [35]: > 100 µM
TGI [36]: > 100 µM
TGI [37]: > 100 µM
TGI [38]: > 100 µM
TGI [39]: > 100 µM
TGI [40]: > 100 µM
TGI [41]: > 100 µM
TGI [42]: > 100 µM
TGI [43]: > 100 µM
TGI [44]: > 100 µM
TGI [45]: > 100 µM
TGI [46]: > 100 µM
TGI [47]: > 100 µM
TGI [48]: > 100 µM
TGI [49]: > 100 µM
TGI [50]: > 100 µM
TGI [51]: > 100 µM
TGI [52]: > 100 µM
TGI [53]: > 100 µM
TGI [54]: > 100 µM
TGI [55]: > 100 µM

N#Cc1cccc(/C=N/N=C(\N)NO)c1
TGI [1]: > 100 µM
TGI [2]: > 100 µM
TGI [56]: > 100 µM
TGI [3]: > 100 µM
TGI [57]: > 100 µM
TGI [4]: > 100 µM
TGI [5]: > 100 µM
TGI [6]: > 100 µM
TGI [7]: > 100 µM
TGI [9]: > 100 µM
TGI [10]: > 100 µM
TGI [12]: > 100 µM
TGI [13]: > 100 µM
TGI [58]: > 100 µM
TGI [14]: > 100 µM
TGI [15]: > 100 µM
TGI [16]: > 100 µM
TGI [17]: > 100 µM
TGI [18]: > 100 µM
TGI [19]: > 100 µM
TGI [21]: > 100 µM
TGI [22]: > 100 µM
TGI [25]: > 100 µM
TGI [26]: > 100 µM
TGI [27]: > 100 µM
TGI [28]: > 100 µM
TGI [29]: > 100 µM
TGI [30]: > 100 µM
TGI [31]: > 100 µM
TGI [32]: 52.8 µM
TGI [33]: > 100 µM
TGI [34]: > 100 µM
TGI [35]: > 100 µM
TGI [36]: > 100 µM
TGI [37]: > 100 µM
TGI [38]: > 100 µM
TGI [39]: > 100 µM
TGI [40]: > 100 µM
TGI [41]: > 100 µM
TGI [42]: > 100 µM
TGI [44]: > 100 µM
TGI [45]: > 100 µM
TGI [46]: > 100 µM
TGI [47]: > 100 µM
TGI [48]: > 100 µM
TGI [49]: > 100 µM
TGI [50]: > 100 µM
TGI [51]: > 100 µM
TGI [52]: > 100 µM
TGI [53]: > 100 µM
TGI [54]: > 100 µM
TGI [55]: > 100 µM

CC1OC(n2cc(F)c(=O)[nH]c2=O)C=CC1=O (centres undefined)
TGI [1]: 31.5 µM
TGI [2]: 36.2 µM
TGI [3]: 35.3 µM
TGI [57]: 36 µM
TGI [4]: 55.8 µM
TGI [5]: 28.7 µM
TGI [6]: 34.1 µM
TGI [7]: 30 µM
TGI [8]: 34.6 µM
TGI [9]: 31.9 µM
TGI [10]: 31.1 µM
TGI [11]: 69.3 µM
TGI [12]: 34.8 µM
TGI [13]: 53 µM
TGI [59]: > 100 µM
TGI [58]: 66.4 µM
TGI [14]: 36.9 µM
TGI [15]: 31.2 µM
TGI [16]: 32.2 µM
TGI [17]: 29.8 µM
TGI [18]: > 100 µM
TGI [19]: 31.5 µM
TGI [20]: 31.4 µM
TGI [21]: 23.2 µM
TGI [22]: 30.3 µM
TGI [23]: 93.2 µM
TGI [24]: 43.8 µM
TGI [25]: 47.9 µM
TGI [26]: 56.8 µM
TGI [27]: 28.9 µM
TGI [28]: 30.7 µM
TGI [29]: 31 µM
TGI [30]: 36.1 µM
TGI [31]: 38.7 µM
TGI [32]: 32.4 µM
TGI [33]: > 100 µM
TGI [34]: 37.1 µM
TGI [35]: > 100 µM
TGI [36]: 34.1 µM
TGI [37]: 95.9 µM
TGI [38]: 31.8 µM
TGI [39]: 46.1 µM
TGI [40]: > 100 µM
TGI [41]: 89.1 µM
TGI [42]: 38.6 µM
TGI [43]: 32.3 µM
TGI [44]: > 100 µM
TGI [45]: 33.6 µM
TGI [46]: 29.4 µM
TGI [47]: 49.3 µM
TGI [48]: 30.4 µM
TGI [49]: 33.2 µM
TGI [51]: 32.5 µM
TGI [52]: 70.3 µM
TGI [53]: 31 µM
TGI [54]: 27.9 µM
TGI [55]: 29.6 µM
